Measurements reported in ChEMBL document CHEMBL5096235, “In Silico Exploration and Biological Evaluation of Bispecific Peptides Derived from Anti-HER2 Antibodies and Peptide-Camptothecin Conjugates for HER2-Positive Breast Cancer” (J Med Chem, 2022).
The source made the active and inactive calls. No cut-off for these calls is given here. Residues, ends and D or L forms follow the SMILES beside them. *: point of attachment. S(CH2)2OCO2(CPT-20-yl) = CC[C@@]1(OC(=O)OCCS*)C(=O)OCc2c1cc1n(c2=O)Cc2cc3ccccc3nc2-1

Key:
[1] = system: SK-BR-3; experiment: Antitumor activity against human SK-BR-3 cells xenografted in nude mouse assessed as reduction in tumor growth at 8 umol/kg, iv administered every 3 days for 14 days and measured every 2 days; assay type: functional, organism-based; conditions: dose 8.0 µmol/kg, time 14.0 day
[2] = […] in nude mouse xenografted with human SK-BR-3 cells assessed as effect on alanine aminotransferase level at 8 micromol/kg, iv administered every 3 days for 14 days; assay type: organism-based; conditions: in vivo, 336 h, dose 8 µmol/kg, time 14 day
[3] = Cytotoxicity against human MCF-10A cells assessed as inhibition of cell growth incubated for 48 hrs by MTT assay; assay type: toxicity, cell-based
[4] = […] in nude mouse xenografted with human SK-BR-3 cells assessed as effect on aspartate aminotransferase level at 8 micromol/kg, iv administered every 3 days for 14 days; assay type: organism-based; conditions: in vivo, 336 h, dose 8 µmol/kg, time 14 day
[5] = system: SK-BR-3; experiment: Induction of apoptosis in human SK-BR-3 cells assessed as live cells at 1 uM incubated for 24 hrs by Annexin V-FITC/PI staining based flow cytometry analysis (Rvb= 89.4%); assay type: functional
[6] = Toxicity in nude mouse xenografted with human SK-BR-3 cells assessed as effect on alkaline phosphatase level at 8 micromol/kg, iv administered every 3 days for 14 days; assay type: organism-based; conditions: in vivo, 336 h, dose 8 µmol/kg, time 14 day
[7] = system: SK-BR-3; experiment: Induction of apoptosis in human SK-BR-3 cells assessed as early apoptotic cells at 1 uM incubated for 24 hrs by Annexin V-FITC/PI staining based flow cytometry analysis (Rvb= 4.37%); assay type: functional
[8] = Toxicity in nude mouse xenografted with human SK-BR-3 cells assessed as lung damage at 8 micromol/kg, iv administered every 3 days for 14 days by H and E staining based analysis; assay type: organism-based; conditions: in vivo, 336 h, dose 8 µmol/kg, time 14 day
[9] = system: SK-BR-3; experiment: Induction of apoptosis in human SK-BR-3 cells assessed as late apoptotic cells at 2 uM incubated for 24 hrs by Annexin V-FITC/PI staining based flow cytometry analysis (Rvb= 5.02%); assay type: functional
[10] = system: SK-BR-3; experiment: Induction of cell cycle arrest in human SK-BR-3 cells assessed as accumulation of cells at S phase at 1 uM incubated for 24 hrs by flow cytometry analysis (reference value: 23%); assay type: functional
[11] = Metabolic stability in Sprague-Dawley rat plasma assessed as half life incubated for 120 mins by LC-MS/MS analysis; assay type: ADME, cell-free
[12] = Toxicity in nude mouse xenografted with human SK-BR-3 cells assessed as heart damage at 8 micromol/kg, iv administered every 3 days for 14 days by H and E staining based analysis; assay type: organism-based; conditions: in vivo, 336 h, dose 8 µmol/kg, time 14 day
[13] = system: SK-BR-3; experiment: Induction of apoptosis in human SK-BR-3 cells assessed as late apoptotic cells at 1 uM incubated for 24 hrs by Annexin V-FITC/PI staining based flow cytometry analysis (Rvb= 5.02%); assay type: functional
[14] = system: SK-BR-3; experiment: Induction of apoptosis in human SK-BR-3 cells assessed as live cells at 2 uM incubated for 24 hrs by Annexin V-FITC/PI staining based flow cytometry analysis (Rvb= 89.4%); assay type: functional
[15] = system: SK-BR-3; experiment: Induction of apoptosis in human SK-BR-3 cells assessed as dead cells at 1 uM incubated for 24 hrs by Annexin V-FITC/PI staining based flow cytometry analysis (Rvb= 1.21%); assay type: functional
[16] = system: SK-BR-3; experiment: Cytotoxicity against HER-positive human SK-BR-3 cells assessed as inhibition of cell growth incubated for 48 hrs by MTT assay; assay type: functional, cell-based; conditions: SK-BR-3, 48 h
[17] = Toxicity in nude mouse xenografted with human SK-BR-3 cells assessed as effect on globulin level at 8 micromol/kg, iv administered every 3 days for 14 days; assay type: organism-based; conditions: in vivo, 336 h, dose 8 µmol/kg, time 14 day
[18] = Toxicity in nude mouse xenografted with human SK-BR-3 cells assessed as kidney damage at 8 micromol/kg, iv administered every 3 days for 14 days by H and E staining based analysis; assay type: organism-based; conditions: in vivo, 336 h, dose 8 µmol/kg, time 14 day
[19] = Toxicity in nude mouse xenografted with human SK-BR-3 cells assessed as effect on albumin level at 8 micromol/kg, iv administered every 3 days for 14 days; assay type: organism-based; conditions: in vivo, 336 h, dose 8 µmol/kg, time 14 day
[20] = Toxicity in nude mouse xenografted with human SK-BR-3 cells assessed as effect on total protein level at 8 micromol/kg, iv administered every 3 days for 14 days; assay type: organism-based; conditions: in vivo, 336 h, dose 8 µmol/kg, time 14 day
[21] = Toxicity in nude mouse xenografted with human SK-BR-3 cells assessed as effect on creatinine level at 8 micromol/kg, iv administered every 3 days for 14 days; assay type: organism-based; conditions: in vivo, 336 h, dose 8 µmol/kg, time 14 day
[22] = target: T1, DNA topoisomerase 1 (Homo sapiens) (UniProt P11387); experiment: Inhibition of topoisomerase 1 (unknown origin) assessed as relaxation of supercoiled plasmid pBR322 DNA at 100 uM preincubated for 20 mins followed by pBR322 DNA addition and measured after 30 mins by agarose gel electrophoresis analysis; conditions: time 50.0 min
T1 sequence (whole entry): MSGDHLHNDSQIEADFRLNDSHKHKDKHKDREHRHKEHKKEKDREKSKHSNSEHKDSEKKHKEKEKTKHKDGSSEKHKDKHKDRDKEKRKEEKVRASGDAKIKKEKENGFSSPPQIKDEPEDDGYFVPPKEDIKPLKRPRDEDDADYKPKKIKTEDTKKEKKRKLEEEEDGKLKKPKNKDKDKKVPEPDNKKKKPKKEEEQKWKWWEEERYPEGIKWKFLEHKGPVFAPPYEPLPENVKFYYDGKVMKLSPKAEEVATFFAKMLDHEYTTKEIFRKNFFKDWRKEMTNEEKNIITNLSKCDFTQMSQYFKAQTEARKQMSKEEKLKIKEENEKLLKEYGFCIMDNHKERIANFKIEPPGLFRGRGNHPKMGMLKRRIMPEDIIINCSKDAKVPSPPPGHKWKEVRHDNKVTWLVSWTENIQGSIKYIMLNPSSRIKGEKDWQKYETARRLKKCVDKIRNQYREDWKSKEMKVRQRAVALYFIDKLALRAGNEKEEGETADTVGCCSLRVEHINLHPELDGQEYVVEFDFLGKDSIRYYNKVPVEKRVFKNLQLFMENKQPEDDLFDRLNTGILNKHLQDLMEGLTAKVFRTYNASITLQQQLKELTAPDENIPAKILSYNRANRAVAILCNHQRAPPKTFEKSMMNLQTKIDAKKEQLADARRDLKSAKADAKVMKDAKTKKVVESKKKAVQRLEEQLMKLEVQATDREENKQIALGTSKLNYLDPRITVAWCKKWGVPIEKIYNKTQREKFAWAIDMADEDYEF

[23] = Drug metabolism in human SK-BR-3 cells assessed as camptothecin release at 50 uM measured after 4 hrs by LC-MS/MS analysis; assay type: ADME, cell-based; conditions: sk-br-3, 4 h
[24] = Toxicity in nude mouse xenografted with human SK-BR-3 cells assessed as liver damage at 8 micromol/kg, iv administered every 3 days for 14 days by H and E staining based analysis; assay type: organism-based; conditions: in vivo, 336 h, dose 8 µmol/kg, time 14 day
[25] = Toxicity in nude mouse xenografted with human SK-BR-3 cells assessed as cellular necrosis at 8 micromol/kg, iv administered every 3 days for 14 days by H and E staining based analysis; assay type: organism-based; conditions: in vivo, 336 h, dose 8 µmol/kg, time 14 day
[26] = Renal toxicity in nude mouse xenografted with human SK-BR-3 cells assessed as effect on blood urea nitrogen level at 8 micromol/kg, iv administered every 3 days for 14 days; assay type: organism-based; conditions: in vivo, 336 h, dose 8 µmol/kg, time 14 day
[27] = target: Epidermal growth factor receptor and ErbB2 (HER1 and HER2) (Homo sapiens) (UniProt P04626+P00533); experiment: Inhibition of EGFR/HER2 heterodimerization in human SK-BR-3 cells at 10 uM preincubated for 4 hrs followed by EGF addition for 20 mins by immunoprecipitation analysis; assay type: cell-based; conditions: time 260.0 min

Structure (SMILES) | Activity [1] | Activity [2] | IC50 at 48 h [3] [µM] | Activity [4] | Activity [5] [%] | Activity [6] | Activity [7] [%] | Activity [8] | Activity [9] [%] | Activity [10] [%] | half-life [11] [min] | Activity [12] | Activity [13] [%] | Activity [14] [%] | Activity [15] [%] | IC50 [16] [nM] | Activity [17] | Activity [18] | Activity [19] | Activity [20] | further results
CC[C@H](C)[C@H](NC(=O)[C@@H](N)CCCNC(=N)N)C(=O)N[C@@H](CCCCN)C(=O)N1CCC[C@H]1C(=O)N[C@@H](CCCNC(=N)N)C(=O)N[C@@H](CCCCN)C(=O)NCC(=O)N[C@@H](Cc1ccc(O)cc1)C(=O)N[C@H](C(=O)N[C@@H](CCCNC(=N)N)C(=O)NCC(=O)N[C@@H](CSSCCOC(=O)O[C@]1(CC)C(=O)OCc2c1cc1n(c2=O)Cc2cc3ccccc3nc2-1)C(=O)NCC(=O)N[C@@H](CC(N)=O)C(=O)N1CCC[C@H]1C(=O)N[C@@H](CC(N)=O)C(=O)N[C@@H](Cc1c[nH]c2ccccc12)C(=O)NCC(=O)N[C@@H](CCCNC(=N)N)C(=O)N[C@@H](CO)C(=O)N[C@@H](Cc1c[nH]c2ccccc12)C(=O)N[C@@H](Cc1ccc(O)cc1)C(=O)N[C@@H](CC(N)=O)C(=O)N[C@@H](CCC(N)=O)C(=O)N[C@@H](CCCNC(=N)N)C(=O)N[C@@H](Cc1ccccc1)C(=O)N[C@@H](CCCCN)C(N)=O)[C@@H](C)O (H-RIKPRKGYTRGC(S(CH2)2OCO2(CPT-20-yl))GNPNWGRSWYNQRFK-NH2) | Active | Non-Toxic | 23.9 | Non-Toxic | 57.6 | Non-Toxic | 34.9 | Non-Toxic | 10.8 | 39.2 | 15 | Non-Toxic | 7.25 | 49.1 | 0.26 | 1470 | Non-Toxic | Non-Toxic | Non-Toxic | Non-Toxic | Activity [21]: Non-Toxic; inhibition [22]: Active; Drug metabolism [23]: Metabolite_Detected; Activity [24]: Non-Toxic; Activity [25]: Non-Toxic; Activity [26]: Non-Toxic; inhibition [27]: Active
CC[C@H](C)[C@H](NC(=O)[C@@H](N)CCCNC(=N)N)C(=O)N[C@@H](CCCCN)C(=O)N1CCC[C@H]1C(=O)N[C@@H](CCCNC(=N)N)C(=O)N[C@@H](CCCCN)C(=O)NCC(=O)N[C@@H](Cc1ccc(O)cc1)C(=O)N[C@H](C(=O)N[C@@H](CCCNC(=N)N)C(=O)NCC(=O)N[C@@H](CSSCCOC(=O)O[C@]1(CC)C(=O)OCc2c1cc1n(c2=O)Cc2cc3ccccc3nc2-1)C(=O)NCC(=O)N[C@@H](CSSCCOC(=O)O[C@]1(CC)C(=O)OCC2=C1C=C1c3nc4ccccc4cc3NC1C2=O)C(=O)NC(=O)C[C@H](NC(=O)CN)C(=O)N1CCC[C@H]1C(=O)N[C@@H](CC(N)=O)C(=O)N[C@@H](Cc1c[nH]c2ccccc12)C(=O)NCC(=O)N[C@@H](CCCNC(=N)N)C(=O)N[C@@H](CO)C(=O)N[C@@H](Cc1c[nH]c2ccccc12)C(=O)N[C@@H](Cc1ccc(O)cc1)C(=O)N[C@@H](CC(N)=O)C(=O)N[C@@H](CCC(N)=O)C(=O)N[C@@H](CCCNC(=N)N)C(=O)N[C@@H](Cc1ccccc1)C(=O)N[C@@H](CCCCN)C(N)=O)[C@@H](C)O (some centres undefined) | Active | Non-Toxic | 17.1 | Non-Toxic | 51.2 | Non-Toxic | 39.8 | Non-Toxic | 14 | 43.45 | 15 | Non-Toxic | 8.5 | 44.7 | 0.49 | 120 | Non-Toxic | Non-Toxic | Non-Toxic | Non-Toxic | Activity [21]: Non-Toxic; inhibition [22]: Active; Drug metabolism [23]: Metabolite_Detected; Activity [24]: Non-Toxic; Activity [25]: Non-Toxic; Activity [26]: Toxic; inhibition [27]: Active
